Results taken from publication PMC12264554, “Application of preclinical absorption, distribution, metabolism, elimination in vitro techniques for the characterization and compound library optimization of novel antibiotic gallium salophen” (Drug Metabolism and Disposition, 2025).
Like-named read-outs stand apart in the source and are kept apart here.

How the values were obtained:
[1] = calculated B/P, cited from earlier work
HasA = HasA (Pseudomonas aeruginosa, UniProt G3XD33); assay: Kd determination by fluorescence quenching of apo-HasAp; details: read-out: HasA Kd; apo-HasAp 1 μM, 20 mM sodium phosphate pH 7.4, 25 °C, one-site binding fit
Procedure: Wild-type, full-length HasAp was prepared from freshly transformed Escherichia coli BL21(DE3) competent cells as previously described in 4 L of M9 media. Cell pellets were resuspended and lysed with an LM-20 microfluidizer at 18,000 psi. Lysate was clarified by centrifugation and applied to a Q-Sepharose column. HasAp was eluted over a gradient from 20 to 600 mM NaCl in 20 mM Tris-HCl (pH 7.5), and desired fractions determined by SDS-PAGE were pooled. Apo-HasAp was further purified on a Butyl Sepharose Fast Flow column equilibrated with 50 mM sodium phosphate buffer with 0.7 M ammonium sulfate (pH 7.0). Holo-HasAp and other proteins eluted within 2–3 bed volumes of 50 mM sodium phosphate containing 0.5 M ammonium sulfate. Apo-HasAp was then eluted with a linear gradient of sodium phosphate buffer (50–20 mM) containing ammonium sulfate (0.5–0 M). Fractions were analyzed again by SDS-PAGE, and the apo-HasAp was pooled, concentrated (Amicon stirred cell with Ultracel 10 kDa filter), and exchanged into 20 mM sodium phosphate buffer.
Binding affinities were determined using a BioTek Synergy H1 microplate reader in a black 96-well plate. Compounds were solvated in H2O in serial dilutions (100–0.39 μM). One micromolar solution of apo-HasAp 20 mM sodium phosphate buffer (pH 7.4, 25 °C) was titrated into the ligand of interest. Emission spectra were recorded (300–500 nm) after excitation at 280 nm. The decrease in maximum emission was plotted against the ligand concentration (accounting for dilution) and fit to one-site binding using GraphPad Prism v10.

[2] = Experimental LogP by reverse-phase HPLC method; assay type: physicochemical; details: extrapolated log kw
Source text: LogP was experimentally determined using previously published reverse-phase high-performance liquid chromatography method, and this workflow was adapted using instrumentation described in the previous LC-MS/MS analysis section ([Coutinho et al, 2023]). Briefly, analogs were eluted using isocratic flow with an increasing percentage of organic solvent from 55% to 90% in increments of 5%. The change in the log of the retention factor, log k, was plotted against the fraction of organic solvent. This allowed for extrapolation to the y-intercept, which is when the fraction of organic in the system is zero, or log kw. The same workflow was applied to known compounds with a published logP value to establish a relationship between logP and log kw. This ratio was used to calculate the experimental logP from the log kw of the test compounds. The in silico prediction of logP values was obtained using an online calculator by Molinspiration Cheminformatics (molinspiration.com).

[3] = Caco-2 permeability screening; assay type: in vitro ADME; details: for Papp A→B / Papp B→A / efflux ratio at 20 µM: Caco-2, 20 μM; for Papp A→B / Papp B→A: 30 and 60 min, average ± SEM; for Papp A→B: read-out: Papp apical to basolateral; for Papp B→A: read-out: Papp basolateral to apical; for Papp: Caco-2, ranked by Papp against control drugs, read-out: Permeability ranking; for efflux ratio at 20 µM: read-out: Efflux ratio B to A/A to B
Procedure: Caco-2 cells were received from American Type Culture Collection and certified mycoplasma free. Cells were seeded on transwell plates (CoStar, growth area 0.33 cm^2/well, polycarbonate membrane, 0.33 μm pore size) between passage 20 and 27 and then analyzed between 21 and 25 days after wells were seeded to ensure enterocyte-like differentiation. Before assessing permeability, cells were washed once with Hank’s Balanced Salt Solution buffer, pH 7.4, and then incubated at 37 °C for 30 minutes. Transepithelial electrical resistance (TEER) was measured after equilibration before the experiment using an epithelial volt-ohmmeter (EVOM, World Precision Instruments), and cells were used if TEER > 250 Ω × cm^2. Cells were dosed to measure permeability from basolateral and apical sides at a concentration of 20 μM of test compound and 50 μM of Lucifer yellow. Lucifer yellow was used as a “zero permeability” marker to monitor the integrity of cell barrier. Samples were taken at 0 and 60 minutes from the donor side, and samples were taken at 30 and 60 minutes from the receiver side; media was replenished after the 30-minute sample was taken from both chambers. A calibration curve was prepared by serial dilution using the dosing solution in a 1:5 dilution. […] Samples were prepared for LC-MS/MS analysis by taking 100 μL of sample, adding 1 μM internal standard (GaSal-4 or GaSal-5), and crashing with 400 μL of methanol. Samples were centrifuged at 3000 rpm at 4 °C for 30 minutes, 200 μL of supernatant was transferred to a new plate, and 100 μL of water was added to each sample. Samples were vortexed and analyzed by LC-MS/MS as described earlier. […] To preliminarily evaluate organic cation transporter 1 (OCT1) or P-glycoprotein (P-gp)-dependent transport, transport studies were conducted with and without a 1 μM “inhibitor cocktail” alongside GaSal. […] The Papp for basolateral to apical, Papp apical to basolateral, and efflux ratio were reported for each compound. In order to calculate Papp, the concentration in the sampled time point was determined from the calibration curve and then converted to μg based on the volume of the chamber (0.2 mL for apical, 1.0 mL for basolateral). […] The calculation of Papp was determined using eq. […] Data are presented as the average ± SEM for each compound analyzed as n = 3 on 2 different days with 2 different cell line passages, for n = 6 total. GaSal is n = 3 on 3 different cell line passages since this was used as a test compound for the inhibition cocktail experiments.

[4] = RBC/PL partitioning equilibrium in whole blood; details: for K2EDTA KRBC/PL: pooled K2EDTA whole blood; for K2EDTA KRBC/PL / Heparin KRBC/PL: LC-MS/MS (ICP-MS for Ga^3+); for Heparin KRBC/PL: pooled sodium heparin whole blood
Procedure: The mixtures were digested at 80 °C for 4 hours and further diluted to a concentration of 6% nitric acid. Gallium (Ga^71) in whole blood, PL, and RBC samples were quantified using an Agilent 7700x ICP-MS instrument (Agilent Technologies). Metal levels were detected using an Octopole Reaction System in He mode. Other ICP-MS parameters include an radio frequency power of 1500 W, on octupole radio frequency of 190 V, an octapole bias of –18 V, a helium gas flow of 4.3 mL/min, and an argon flow of 0.99 L/min. Samples were loaded through a 7700X peristaltic (with a speed of 0.1 rps) and a MicroMist nebulizer. A standard calibration curve was used to derive metal concentrations. The calibration standards from 0–250 ppb were prepared in 6% nitric acid using atomic absorption standards (Sigma). Data analysis and extraction were performed using Agilent’s MassHunter software version 5.1, specifically version D.01.01.
All LC-MS/MS grade solvents were purchased from ThermoFisher. Ammonium bicarbonate was purchased from Sigma Aldrich. Analysis was performed on a Waters I-Class ultra-performance liquid chromatography system connected with a Waters Xevo TQ-XS mass spectrometer. Ten millimolar ammonium bicarbonate, pH 9.4 was used for mobile phase A, and 100% methanol was used for mobile phase B. The column flow rate was set at 0.400 mL/min. Chromatographic separation was performed with a BEH C18 (2.1 × 50 mm, 1.7 μm) column (Waters). […] The total run time was 4 minutes. The column temperature was set to 60 °C, and the autosampler temperature was set to 15 °C. Washing parameters were 800 μL of weak needle wash (acetonitrile [ACN]:Water/50:50) and 1000 μL of strong needle wash (methanol:ACN:2-propanol:formic acid/30:30:40:0.5) after every injection. Transitions used to monitor all drugs in the study are shown in Supplemental Table 1.
Whole blood (either potassium EDTA [K2EDTA] or sodium heparin) was preincubated at 37 °C for 30 minutes before spiking with the analyte. GaSal-5 was made at a stock concentration of 100 μg/mL in water and then spiked at a high concentration (1 μg/mL) and low concentration (100 ng/mL) to determine whether equilibrium was concentration dependent. Samples were then aliquoted and stored in a water bath at 37 °C for 1, 2, 3, 4, and 8 hours or harvested immediately. PL was harvested from samples by centrifuging at 3000 rpm at 4 °C for 10 minutes. PL was transferred to a new tube and considered the PL fraction, whereas the rest of the matrix was considered the RBC fraction. Samples were then either analyzed by LC-MS/MS or ICP-MS. […] For selectivity lot analysis, whole blood from 3 male and 3 female donors were incubated for 2 hours and then analyzed with LC-MS/MS and ICP-MS at a single concentration of 1 μg/mL. Data are presented as average ± SEM, n = 3 per sample, per concentration. Significance was determined by using a paired t test for ICP-MS and LC-MS/MS data (the same sample, different method) or a 2-tailed Student’s t test for different anticoagulants.

Sequence of HasA (G3XD33 entry or part of it): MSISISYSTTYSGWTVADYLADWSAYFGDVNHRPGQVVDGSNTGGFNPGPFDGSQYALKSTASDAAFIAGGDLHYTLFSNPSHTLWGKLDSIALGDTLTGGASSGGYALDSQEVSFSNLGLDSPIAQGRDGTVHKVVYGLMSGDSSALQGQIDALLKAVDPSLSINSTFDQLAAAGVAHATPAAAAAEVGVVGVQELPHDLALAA

Row | Compound | Kd (HasA) | logP [2] | Papp A→B [3] | Papp B→A [3] | Papp [3] | K2EDTA KRBC/PL ([4]; 0.1 μg/mL, 2 hours) | K2EDTA KRBC/PL ([4]; 1 μg/mL, 2 hours) | further results
1 | [As] [Arsenic] | – | – | – | – | – | – | – | KRBC/PL (B/P ratio) ([1]; ref (Cao et al., 2023)): 1.46
2 | [Cd] [Cadmium] | – | – | – | – | – | – | – | KRBC/PL (B/P ratio) ([1]; ref (Cao et al., 2023)): 4.28
3 | [Cr] [Chromium] | – | – | – | – | – | – | – | KRBC/PL (B/P ratio) ([1]; ref (Bonde & Christensen, 1991)): 1-3
4 | C[N+](C)(C)CCOc1ccc(/C=N/c2ccccc2/N=C/c2ccc(OCC[N+](C)(C)C)cc2O)c(O)c1.[Ga+3] [GaSal-1] | 2500 ± 1200 nM | – | – | – | – | – | – | –
5 | C/C(=N\c1ccccc1/N=C/c1ccc(OCC[N+](C)(C)C)cc1O)c1ccccc1O.[Ga+3] [GaSal-6] | 4000 ± 2800 nM | – | – | – | – | – | – | –
6 | CC(=Nc1ccccc1N=Cc1ccc(OCCN2CCOCC2)cc1O)c1ccccc1O.[Ga+3] [GaSal-8] | 5200 ± 400 nM | 4.11 | < 0.01 ×10⁻⁶ cm/s | 5.75 ± 0.37 ×10⁻⁶ cm/s | < 1.12 ×10⁻⁶ cm/s | 0.12 ± 0.09 | 0.10 ± 0.05 | efflux ratio at 20 µM ([3]; human): > 5.75; Heparin KRBC/PL ([4]; 0.1 μg/mL, 2 hours): 33.8 ± 5.7; Heparin KRBC/PL ([4]; 1 μg/mL, 2 hours): 37.4 ± 2.6
7 | CC(=Nc1ccccc1N=Cc1ccc(OCCC(=O)O)cc1O)c1ccccc1O.[Ga+3] [GaSal-9] | 330 ± 40 nM | 3.03 | < 0.01 ×10⁻⁶ cm/s | 22.5 ± 5.63 ×10⁻⁶ cm/s | < 1.12 ×10⁻⁶ cm/s | 820 ± 59 | 13745 ± 3800 | efflux ratio at 20 µM ([3]; human): > 22.5
8 | COCCOCCOc1ccc(/C=N/c2ccccc2N=C(C)c2ccccc2O)c(O)c1.[Ga+3] [GaSal-10] | 3400 ± 300 nM | – | – | – | – | – | – | –
9 | OCCCOc1ccc(/C=N/c2ccccc2/N=C/c2ccc(OCCCO)cc2O)c(O)c1.[Ga+3] [GaSal-11] | 570 ± 30 nM | 4.04 | < 0.01 ×10⁻⁶ cm/s | 0.72 ± 0.12 ×10⁻⁶ cm/s | < 1.12 ×10⁻⁶ cm/s | 0.05 ± 0.03 | 0.05 ± 0.02 | Heparin KRBC/PL ([4]; 0.1 μg/mL, 2 hours): 0.91 ± 0.19; Heparin KRBC/PL ([4]; 1 μg/mL, 2 hours): 1.15 ± 0.19
10 | CC(=Nc1ccccc1/N=C/c1ccc(OCCCO)cc1O)c1ccccc1O.[Ga+3] [GaSal-12] | 520 ± 10 nM | 3.19 | 0.05 ± 0.01 ×10⁻⁶ cm/s | 0.17 ± 0.06 ×10⁻⁶ cm/s | < 1.12 ×10⁻⁶ cm/s | 0.11 ± 0.06 | 0.13 ± 0.04 | efflux ratio at 20 µM ([3]; human): 3.4; Heparin KRBC/PL ([4]; 0.1 μg/mL, 2 hours): 0.86 ± 0.31; Heparin KRBC/PL ([4]; 1 μg/mL, 2 hours): 1.48 ± 0.10
11 | CCCCOc1ccc(/C=N/c2ccccc2/N=C/c2ccc(OCCCC)cc2O)c(O)c1.[Ga+3] [GaSal-15] | 1980 ± 170 nM | 5.99 | 0.79 ± 0.06 ×10⁻⁶ cm/s | 7.1 ± 1.13 ×10⁻⁶ cm/s | < 1.12 ×10⁻⁶ cm/s | 5.40 ± 0.13 | 3.81 ± 0.97 | efflux ratio at 20 µM ([3]; human): 9.02; Heparin KRBC/PL ([4]; 0.1 μg/mL, 2 hours): 0.83 ± 0.01; Heparin KRBC/PL ([4]; 1 μg/mL, 2 hours): 1.24 ± 0.03
12 | O=[N+]([O-])[O-].O=[N+]([O-])[O-].O=[N+]([O-])[O-].[Ga+3] [Ga^3+, gallium nitrate, reference compound] | – | – | – | – | – | – | – | hemolysis [4]: > 5%; ICP-MS calculated KRBC/PL ([4]; 1 μg/mL, sodium heparin whole blood, 6 selectivity lots, 2 hours): 0.08 ± 0.01
13 | [Pb] [Lead] | – | – | – | – | – | – | – | KRBC/PL (B/P ratio) ([1]; ref (Cao et al., 2023)): 1.13
14 | CN(C)C(=O)C(CCN1CCC(O)(c2ccc(Cl)cc2)CC1)(c1ccccc1)c1ccccc1 [Loperamide, reference compound] | – | – | – | – | – | – | – | efflux ratio at 60 min, 20 μM ([3]; human, Caco-2, pH 7.4, known drug standards, read-out: Efflux Ratio B to A/ A to B): 4.22; Papp A→B at 60 min, 20 μM ([3]; human, Caco-2, pH 7.4, known drug standards, read-out: Papp Apical to Basolateral): 3.51 ± 0.04 ×10⁻⁶ cm/s; Papp B→A at 60 min, 20 μM ([3]; human, Caco-2, pH 7.4, known drug standards, read-out: Papp Basolateral to Apical): 14.8 ± 2.12 ×10⁻⁶ cm/s; Papp at 60 min, 20 μM ([3]; human, Caco-2, pH 7.4, known drug standards, read-out: Permeability Ranking): 3.51 to 5.33 ×10⁻⁶ cm/s
